The test system of data set [1] is Urinary bladder. As to the kind of experiment: Inhibition of KCL-induced contraction in rat urinary bladder. The class given is functional, tissue-based. To be noted: Urinary bladder smooth muscle.
For data set [2], the target named is T1, C-X-C chemokine receptor type 1 (Homo sapiens, UniProt P25024).
T1 sequence (P25024 whole entry): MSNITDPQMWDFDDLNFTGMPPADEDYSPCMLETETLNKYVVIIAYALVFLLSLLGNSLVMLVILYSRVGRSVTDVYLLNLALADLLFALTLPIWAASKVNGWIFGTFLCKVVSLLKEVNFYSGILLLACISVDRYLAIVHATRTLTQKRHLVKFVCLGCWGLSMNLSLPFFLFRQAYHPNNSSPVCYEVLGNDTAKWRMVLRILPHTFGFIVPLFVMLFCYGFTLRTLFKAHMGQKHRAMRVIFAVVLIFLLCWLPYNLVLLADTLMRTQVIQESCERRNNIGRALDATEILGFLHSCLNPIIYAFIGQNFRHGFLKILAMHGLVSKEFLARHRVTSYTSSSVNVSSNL
As to the kind of experiment: Binding affinity to human CXCR1 assessed as dissociation constant incubated for 6 to 24 hrs by radioligand binding assay.

The target of data set [3] is T2, C-X-C chemokine receptor type 2 (Homo sapiens, UniProt P25025).
T2 sequence (P25025 whole entry): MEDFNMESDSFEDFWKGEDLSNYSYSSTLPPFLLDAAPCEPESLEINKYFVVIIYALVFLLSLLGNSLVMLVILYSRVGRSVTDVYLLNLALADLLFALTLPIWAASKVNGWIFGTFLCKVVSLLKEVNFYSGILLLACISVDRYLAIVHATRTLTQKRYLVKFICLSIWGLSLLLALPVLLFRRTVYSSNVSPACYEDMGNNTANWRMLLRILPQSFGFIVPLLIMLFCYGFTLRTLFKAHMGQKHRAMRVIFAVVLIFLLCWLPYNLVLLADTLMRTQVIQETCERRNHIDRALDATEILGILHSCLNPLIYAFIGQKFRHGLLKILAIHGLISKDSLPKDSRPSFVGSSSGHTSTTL
As to the kind of experiment: Binding affinity to human CXCR2 assessed as dissociation constant incubated for 6 to 24 hrs by radioligand binding assay.

The target in data set [4] is T1, C-X-C chemokine receptor type 1. As to the kind of experiment: Inhibition of human CXCR1.
Data set [5] has as its system Leishmania infantum. As to the kind of experiment: Antileishmanial activity against promastigote stage of Leishmania infantum MCAN/ES/2001/UCM-10 incubated for 72 hrs by Neubauer haemocytometric chamber analysis. The class given is functional, organism-based. The note with it: MCAN/ES/2001/UCM-10, 72 h.
Data set [6] concerns Leishmania braziliensis. As to the kind of experiment: Antileishmanial activity against promastigote stage of Leishmania braziliensis MHOM/BR/1975/M2904 incubated for 72 hrs by Neubauer haemocytometric chamber analysis. The class given is functional, organism-based. To be noted: MHOM/BR/1975/M2904, 72 h.
Data set [7] relates to Leishmania donovani. As to the kind of experiment: Antileishmanial activity against promastigote stage of Leishmania donovani MHOM/PE/84/LC26 incubated for 72 hrs by Neubauer haemocytometric chamber analysis. The class given is functional, organism-based. The note with it: MHOM/PE/84/LC26, 72 h.
Data set [8] deals with HeLa. As to the kind of experiment: Cytotoxicity against human HeLa cells assessed as reduction in cell viability incubated for 24 hrs by MTT assay. The class given is functional, cell-based.
In data set [9] the target is Acetylcholinesterase (Homo sapiens, UniProt P22303). As to the kind of experiment: Inhibition of human AchE by spectrophotometric analysis.
Chain of Acetylcholinesterase (P22303 whole entry): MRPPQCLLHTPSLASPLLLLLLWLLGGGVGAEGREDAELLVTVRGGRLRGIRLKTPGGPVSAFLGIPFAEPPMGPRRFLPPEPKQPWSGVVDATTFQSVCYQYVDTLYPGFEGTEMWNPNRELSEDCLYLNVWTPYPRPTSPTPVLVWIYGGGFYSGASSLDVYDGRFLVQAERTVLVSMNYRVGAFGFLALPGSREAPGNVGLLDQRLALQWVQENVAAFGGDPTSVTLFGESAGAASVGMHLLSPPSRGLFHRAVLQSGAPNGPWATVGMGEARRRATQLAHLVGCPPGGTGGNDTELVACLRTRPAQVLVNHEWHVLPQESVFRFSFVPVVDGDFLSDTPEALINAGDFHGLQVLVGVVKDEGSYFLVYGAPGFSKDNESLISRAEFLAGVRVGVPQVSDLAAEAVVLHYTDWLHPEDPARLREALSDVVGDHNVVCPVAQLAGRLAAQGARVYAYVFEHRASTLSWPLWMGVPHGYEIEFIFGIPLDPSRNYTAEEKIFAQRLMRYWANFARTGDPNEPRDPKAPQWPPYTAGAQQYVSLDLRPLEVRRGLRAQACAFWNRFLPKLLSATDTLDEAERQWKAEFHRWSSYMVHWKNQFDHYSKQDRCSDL
Data set [10] deals with Cholinesterase (Homo sapiens, UniProt P06276). As to the kind of experiment: Inhibition of human BchE by spectrophotometric analysis.
Chain of Cholinesterase (P06276 whole entry): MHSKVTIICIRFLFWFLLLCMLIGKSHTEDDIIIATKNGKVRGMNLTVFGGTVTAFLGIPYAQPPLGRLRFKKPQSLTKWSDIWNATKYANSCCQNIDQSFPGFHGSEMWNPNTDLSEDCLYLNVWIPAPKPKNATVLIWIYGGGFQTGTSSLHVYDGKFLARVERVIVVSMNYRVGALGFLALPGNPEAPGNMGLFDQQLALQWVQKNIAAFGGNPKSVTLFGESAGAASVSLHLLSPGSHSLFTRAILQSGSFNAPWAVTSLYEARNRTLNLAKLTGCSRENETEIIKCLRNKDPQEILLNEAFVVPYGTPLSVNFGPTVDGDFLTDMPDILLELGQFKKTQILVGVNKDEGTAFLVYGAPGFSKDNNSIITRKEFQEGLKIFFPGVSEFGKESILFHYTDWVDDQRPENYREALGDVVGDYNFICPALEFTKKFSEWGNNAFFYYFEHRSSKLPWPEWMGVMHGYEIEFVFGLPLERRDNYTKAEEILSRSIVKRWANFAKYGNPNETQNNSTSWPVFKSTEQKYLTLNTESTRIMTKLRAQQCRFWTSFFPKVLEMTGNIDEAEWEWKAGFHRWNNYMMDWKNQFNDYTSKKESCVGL
The nature of data set [11]: Inhibition of Yersinia pestis PTP.
For data set [12], the target named is T3, Type-2 angiotensin II receptor (Homo sapiens, UniProt P50052).
T3 sequence (P50052 whole entry): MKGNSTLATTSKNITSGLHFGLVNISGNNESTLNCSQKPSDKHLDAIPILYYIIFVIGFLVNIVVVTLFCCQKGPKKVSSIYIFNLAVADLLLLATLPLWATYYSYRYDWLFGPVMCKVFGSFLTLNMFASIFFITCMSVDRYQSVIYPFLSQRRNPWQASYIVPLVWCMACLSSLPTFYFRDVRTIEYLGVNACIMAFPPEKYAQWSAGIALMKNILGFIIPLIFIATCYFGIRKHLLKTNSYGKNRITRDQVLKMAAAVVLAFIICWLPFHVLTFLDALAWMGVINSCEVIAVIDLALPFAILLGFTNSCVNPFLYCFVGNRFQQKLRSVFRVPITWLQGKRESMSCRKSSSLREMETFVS
As to the kind of experiment: Inhibition of Angiotensin 2 binding to Angiotensin 2 receptor (unknown origin).

The test system of data set [13] is Helicobacter pylori. As to the kind of experiment: Antibacterial activity against Helicobacter pylori assessed as bacterial growth inhibition. It is filed as functional.
The target in data set [14] is T4, Interstitial collagenase (Homo sapiens, UniProt P03956).
T4 sequence (P03956 whole entry): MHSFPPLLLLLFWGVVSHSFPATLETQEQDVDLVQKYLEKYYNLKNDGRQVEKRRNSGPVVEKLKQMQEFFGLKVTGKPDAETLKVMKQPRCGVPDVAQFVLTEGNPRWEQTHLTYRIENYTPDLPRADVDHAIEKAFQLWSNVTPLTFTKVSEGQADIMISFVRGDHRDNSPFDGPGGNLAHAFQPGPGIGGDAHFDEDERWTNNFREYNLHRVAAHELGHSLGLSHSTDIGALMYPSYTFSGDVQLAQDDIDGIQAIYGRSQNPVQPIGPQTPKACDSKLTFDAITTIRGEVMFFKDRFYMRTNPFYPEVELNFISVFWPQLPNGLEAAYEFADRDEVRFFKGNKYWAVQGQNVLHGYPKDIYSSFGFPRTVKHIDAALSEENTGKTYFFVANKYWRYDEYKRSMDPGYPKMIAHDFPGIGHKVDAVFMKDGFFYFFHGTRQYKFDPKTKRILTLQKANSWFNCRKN
As to the kind of experiment: Inhibition of MMP-1 (unknown origin) using DnpPro-Cha-Gly-Cys(Me)-His-Ala-Lys(Nma)-NH2 as substrate by fluorescence spectroscopy.

A short description of data set [15]: Dissociation constant, pKa of the compound. The class given is physicochemical.
A short description of data set [16]: Toxicity in Swiss albino mouse assessed as lethality pretreated for 30 mins followed by NMDA stimulation and measured after 30 mins. The note with it: in vivo, 1 h, time 60 min.
The target in data set [17] is Glutamate [NMDA] receptor. As to the kind of experiment: Binding affinity to NMDA receptor (unknown origin). It is filed as protein-complex assay, Homo sapiens.
For data set [18], the target named is Glutamate [NMDA] receptor. As to the kind of experiment: Binding affinity to TCP-stimulated NMDA (unknown origin). The class given is protein-complex assay, Homo sapiens.

Structures are written as SMILES. In brackets after ≈: the same amount, converted by molar mass.

Turning to `CCc1cc(C#N)ccc1Nc1c(N[C@H](C)C(C)(C)C)c(=O)c1=O`, the half-maximal inhibitory concentration (IC50) in data set [1] turned out to be 90 nM. For the molecule `CC[C@@H](Nc1c(Nc2cccc(C(=O)N(C)C)c2O)c(=O)c1=O)c1ccco1`, the Kd came out at 3.9 nM in data set [2] and 0.049 nM in data set [3]. `CCC(CC)Nc1c(Nc2cccc(C(=O)N(C)C)c2O)c(=O)c1=O` registered a half-inhibitory concentration (IC50) in [4] of 15 nM. Turning to `O=c1c(Nc2ccccc2)c(Nc2ccc([N+](=O)[O-])cc2O)c1=O`, the IC50 in data set [4] was 36 nM. Molecule `CC[C@@H](Nc1c(Nc2cccc(C(=O)N(C)C)c2O)c(=O)c1=O)c1ccccc1` had an IC50 in data set [4] of 6.8 nM. Turning to `CCCCNc1c(N(C)CCCN(C)C)c(=O)c1=O`, the IC50 was determined as 18000 nM in [5] and 17300 nM in data set [6].

For `O=c1c(NCc2ccccc2)c(NC2CCN(Cc3ccccc3)CC2)c1=O`, in [7], the IC50 was 17900 nM. `COc1c(Nc2ccc3ccccc3c2-c2c(O)ccc3ccccc23)c(=O)c1=O`: in [8], the 50% inhibitory concentration (IC50) worked out at 46700 nM. `O=c1c(NCCCCCCCc2c3c(nc4ccccc24)CCCC3)c(NCCCCCCCc2c3c(nc4ccccc24)CCCC3)c1=O`: the IC50 in data set [9] was determined as 13 nM; in [10], 21 nM. For `COc1c(Nc2ccc3c4c(cccc24)-c2ccccc2-3)c(=O)c1=O`, the IC50 in data set [8] is 880 nM. Molecule `O=c1c(O)c(-c2ccc([N+](=O)[O-])cc2)c1=O` displayed an IC50 in [11] of 120000 nM. For the molecule `O=c1c(O)c(-c2ccccc2-c2ccc(CNc3cc(C(F)(F)F)cc4c3CCCC4)cc2)c1=O`, the IC50 in data set [12] was determined as 25 nM.

On to `O=c1c(NC/C=C\COc2cc(CN3CCCCC3)cs2)c(NCCF)c1=O`, for which the MIC in [13] stood at 1.56 µg/mL (≈ 3.83 µM).

As to `CC[C@H](C)[C@H](Nc1c(N(C)O)c(=S)c1=O)C(=O)N[C@@H](Cc1ccccc1)C(=O)NC`, the concentration for half-maximal inhibition (IC50) in data set [14] stood at 15000 nM. For the molecule `O=c1c(NCCCCc2c3c(nc4cc(Cl)ccc24)CCCC3)c(NCCCCc2c3c(nc4ccc(Cl)cc24)CCCC3)c1=O`, the IC50 in [9] turned out to be 2 nM; in data set [10] it was 110 nM. With `Nc1nc2c(ncn2[C@@H]2O[C@@H]3CNc4c(c(=O)c4=O)N[C@H]3[C@H]2O)c(=O)[nH]1`, the pKa in data set [15] was 2.3.

With `CCCCCCCCCCCCCCC(C)Nc1c(NCC[N+](C)(C)C)c(=O)c1=O` (configuration not stated), inhibition in data set [5] was half-maximal at 16300 nM (IC50). In the case of `O=c1c(O)c(-c2ccc3ccccc3c2)c1=O`, the IC50 in data set [11] is 40000 nM.

For `Nc1c(NCCP(=O)(O)O)c(=O)c1=O`, the ED50 in [16] is 29 mg/kg. In [17], the half-maximal inhibitory concentration (IC50) worked out at 470 nM. Consider `O=c1c2c(c1=O)N(CCP(=O)(O)O)CCCN2` [PERZINFOTEL], for which the 50% effective dose (ED50) in [16] was determined as 2.1 mg/kg. The IC50 in data set [17] was 30 nM; in data set [18] it was 7600 nM.

The values above are taken from ChEMBL document CHEMBL5214881, “Squaric acid analogues in medicinal chemistry” (Eur J Med Chem, 2021).
